# From patent US20240252469A1, “Carnosine Analogs for Use in the Treatment of Metabolic Disorders” (priority 2021, published 2024)
# Legend:
# [1] = system: C2C12 skeletal muscle cells; assay: Toxicity testing of carnosine esters (Calcein AM cell viability); format: cell-based; conditions: 100 μM ester in GLT RPMI-1640 medium, 5 days culture, versus control medium
# Description: C2C12 muscle cell myotubes were cultured for 5 days in the following four culture media: a control RPMI-1640 medium; glucolipotoxic (GLT) RPMI-1640 medium (28 mM glucose, 200 μM palmitic acid and 200 μM oleic acid) supplemented with 100 μM of L-carnosine methyl ester; GLT RPMI-1640 medium supplemented with 100 μM of L-carnosine ethyl ester; and GLT RPMI-1640 medium supplemented with 100 μM of L-carnosine iso-propyl ester. Following culture, media were aspirated and cells washed 3 times in Krebs-Ringer buffer (KRB). A final concentration of 5 μM Calcein AM Cell Viability Dye (ThermoFischer) in KRB was loaded for 1 h before washing again with KRB. Cell viability was measured via fluorescence, with excitation and emission at 490 nm and 520 nm, respectively.
# [2] = system: C2C12 skeletal muscle cells; assay: Reactive species scavenging ability (DCFDA fluorescence); format: cell-based; conditions: 100 μM ester for 1 h after 5 days culture in GLT RPMI-1640 media
# Description: C2C12 muscle cell myotubes were cultured for 5 days in standard RPMI-1640 tissue culture media or GLT RPMI-1640 media. Corresponding media were then replaced and supplemented independently with 100 μM of a carnosine ester (L-carnosine methyl ester, L-carnosine ethyl ester, and L-carnosine iso-propyl ester investigated) for 1 h. Non-supplemented standard and GLT RPMI-1640 media were also retained as controls. Cells were thereafter washed 3 times in KRB and 20 μM 2′,7′-dichlorofluorescein diacetate (DCFDA), a cell permeant fluorogenic dye that measures hydroxyl, peroxyl and other ROS, was loaded for 1 h. Reactive species detection was measured via fluorescence, with excitation at 495 nm and emission at 530 nm.
# INS-1 pancreatic β-cells = assay: Insulin secretion from INS-1 pancreatic β-cells (ELISA, normalised to cellular protein); format: cell-based; conditions: 100 μM ester in GLT RPMI-1640 medium for 5 days; 2 h secretagogue cocktail stimulation
# Description: INS-1 pancreatic B-cells were cultured for 5 days in standard RPMI-1640 tissue culture media or GLT RPMI-1640 media. The media were either used without further supplementation (used as controls) or were independently supplemented with either 10 mM of L-carnosine or with 100 μM of a carnosine ester (L-carnosine methyl ester, L-carnosine ethyl ester, and L-carnosine iso-propyl ester investigated). INS-1 cells were then treated with KRB or KRB supplemented with secretagogue cocktail (13.5 mM glucose, 1 μM phorbol 12-myristate 13-acetate, 1 mM isobutyl-methylxanthine, 1 mM tolbutamide, 10 mM leucine, 10 mM glutamine) as a stimulant of insulin secretion for 2 h. Insulin secretion was determined by ELISA assay, with data normalised to cellular protein content.
# [3] = system: High fat-fed spontaneously diabetic mice; assay: Glucose tolerance test in an in vivo model of type-2 diabetes; conditions: 45 mg/kg body weight/day in diet
# Description: High fat-fed spontaneously diabetic mice were used as an animal model of type-2 diabetes. A glucose tolerance test was performed on three sets of mice, wherein the mice were initially fasted for 6 h. A […] glucose solution was then administered to the three sets of mice in their drinking water and their blood glucose concentrations (mmol/L) monitored over a period of 2 h. The following three sets of mice were used in the study: • Non-diabetic, non-high fat-fed mice. • Spontaneously diabetic high fat-fed mice. • Spontaneously diabetic high fat-fed mice whose diet also included 45 mg/kg body weight/day of L-carnosine iso-propyl ester.
# Spontaneously diabetic high fat-fed mice were defined as mice which had been fed the following high fat diet from Research Diets: (60% fat; D12492). Non-diabetic, non-high fat-fed mice were used as a control and were fed the following low fat diet from Research Diets: (10% fat, D12450B). The body weights of the mice on the two different diets were measured throughout.
Compound,cell viability [1],intracellular reactive species (GLT-associated reactive species levels) [2],insulin secretion in cells exposed to glucolipotoxicity (GLT) (INS-1 pancreatic β-cells),toxic effects on the animals ([3]; high fat-fed mice),"glucose tolerance ([3]; spontaneously diabetic high fat-fed mice, 6 h fast)",blood glucose concentrations at the end of the study (2 h) ([3]; versus high fat-fed mice only administered the high fat diet)
CCOC(=O)[C@H](Cc1cnc[nH]1)NC(=O)CCN [L-carnosine ethyl ester],non-toxic,return to control values,reverse glucolipotoxic inhibition of insulin secretion,–,–,–
CC(C)OC(=O)[C@H](Cc1cnc[nH]1)NC(=O)CCN [L-carnosine iso-propyl ester],non-toxic,return to control values,reverse glucolipotoxic inhibition of insulin secretion,no toxic effects,significantly improved glucose tolerance,significantly lower
COC(=O)[C@H](Cc1cnc[nH]1)NC(=O)CCN [L-carnosine methyl ester],non-toxic,return to control values,reverse glucolipotoxic inhibition of insulin secretion,–,–,–
